Measured values taken from paper PMC12381739, “Druglike Molecular Degraders of the Oncogenic RNA-Binding Protein HuR” (JACS Au, 2025).

Tests used:
HuR [1] = molecular target: T1, HuR (Homo sapiens, UniProt Q15717); assay: HuR protein expression by western blot in MDA-MB-231 cells; format: cell-based; design: endogenous in cells; settings: 48 h
Experimental: Total protein was extracted using RIPA cell lysis buffer (BioPrep) containing a protease inhibitor, and protein concentration was measured using the BCA protein assay (Sigma-Aldrich) according to the manufacturer’s protocol. Approximately 30 μg of total protein were resolved on a 12% SDS-acrylamide gel and transferred to a PVDF membrane (Immobilon FL transfer membrane; Merck). The membrane was washed with 1× Tris-buffered saline (TBS) containing 0.1% (v/v) Tween-20 (TBST; Tris-base, pH 7.6, NaCl, and Tween-20) and blocked in 1× TBST containing 5% (w/v) BSA for 2 h at room temperature. The membrane was then incubated overnight at 4 °C with primary antibodies: a 1:1000 dilution of rabbit anti-ELAVL1/HuR (Cell Signaling Technology, #12582), a 1:1000 dilution of mouse anti-Bcl2 (Cell Signaling Technology, #15071), or a 1:10,000 dilution of rabbit anti-Vinculin (Cell Signaling Technology, #13901) in 1× TBST containing 5% (w/v) BSA. Following primary antibody incubation, the membrane was washed with 1× TBST and incubated with a 1:10,000 dilution of the appropriate horseradish-peroxidase-conjugated secondary antibody (antirabbit IgG: Cell Signaling, #7074 or antimouse IgG: Cell Signaling, #7076) at room temperature for 2 h. […] The fold change in the expression of the target proteins (HuR or Bcl2) was calculated by normalizing the band intensity to the Vinculin band intensity using ImageJ.

HuR [2] = molecular target: T1, HuR; assay: Fluorescence binding assay using intrinsic fluorescence of the PROTAC with titrated HuR protein; settings: fixed 100 μM degrader, increasing HuR; fluorescence rises over 0.0075–0.1 nM and 0.125–1 nM
Experimental: To elucidate the mechanism underlying the observed biphasic degradation pattern, we generated a docking model using the Schrödinger software. […] This preferential binding correlates with the initial phase of degradation observed at low degrader concentrations (5 nM to 100 nM; Figures B and B and ). At higher degrader concentrations (e.g., 10 μM), different complex engagement may occur at the P2 RNA-binding pocket. […] Unlike the previous displacement assay–which monitored competition between labeled RNA and HuR–we utilized the intrinsic fluorescence of the PROTAC derivative at a fixed concentration while titrating HuR protein. This approach allowed us to detect fluorescence changes corresponding to HuR binding events. […] Fluorescence increased over two separate concentration ranges–0.0075–0.1 nM and 0.125–1 nM–with a clear dip between 0.1 and 0.125 nM. […]
As part of the dual-binding evaluation, Pro-HuR3 fluorescence was first characterized across a concentration range (1–100 μM; 1, 2, 5, 10, 20, 50, and 100 μM). The assays were performed in PBS buffer (20 mM sodium phosphate, 150 mM NaCl, 1 mM dithiothreitol, 0.05% PLURONIC-127, 15% DMSO) at 293 K. Fluorescence spectra were recorded using the Synergy H1 Hybrid Multi-Mode Microplate Reader (Biotek, Agilent), with excitation and emission scans identifying optimal wavelengths of 405–415 nm (excitation) and 520 nm (emission), respectively. […]

HuR [3] = molecular target: T1, HuR; assay: HuR protein expression by western blot in MCF-7 cells; format: cell-based; design: endogenous in cells; host or cells: MCF-7
From the text: Michigan Cancer Foundation-7 (MCF-7) cells were chosen due to their documented overexpression of HuR, which has been linked to cancer pathogenicity in this specific cell line. , Consequently, reducing HuR expression to physiologically normal levels is considered a potential strategy for novel anticancer therapies targeting breast cancers associated with HuR overexpression.
Total protein was extracted using RIPA cell lysis buffer (BioPrep) containing a protease inhibitor, and protein concentration was measured using the BCA protein assay (Sigma-Aldrich) according to the manufacturer’s protocol. Approximately 30 μg of total protein were resolved on a 12% SDS-acrylamide gel and transferred to a PVDF membrane (Immobilon FL transfer membrane; Merck). The membrane was washed with 1× Tris-buffered saline (TBS) containing 0.1% (v/v) Tween-20 (TBST; Tris-base, pH 7.6, NaCl, and Tween-20) and blocked in 1× TBST containing 5% (w/v) BSA for 2 h at room temperature. The membrane was then incubated overnight at 4 °C with primary antibodies: a 1:1000 dilution of rabbit anti-ELAVL1/HuR (Cell Signaling Technology, #12582), a 1:1000 dilution of mouse anti-Bcl2 (Cell Signaling Technology, #15071), or a 1:10,000 dilution of rabbit anti-Vinculin (Cell Signaling Technology, #13901) in 1× TBST containing 5% (w/v) BSA. Following primary antibody incubation, the membrane was washed with 1× TBST and incubated with a 1:10,000 dilution of the appropriate horseradish-peroxidase-conjugated secondary antibody (antirabbit IgG: Cell Signaling, #7074 or antimouse IgG: Cell Signaling, #7076) at room temperature for 2 h. After washing three times with 1X TBST (10 min per wash), protein bands were visualized using Clear Band ECL Substrate (Gene Bio-Application) on the Azure C300 Imaging System. The fold change in the expression of the target proteins (HuR or Bcl2) was calculated by normalizing the band intensity to the Vinculin band intensity using ImageJ.

T1 sequence (Q15717 whole entry): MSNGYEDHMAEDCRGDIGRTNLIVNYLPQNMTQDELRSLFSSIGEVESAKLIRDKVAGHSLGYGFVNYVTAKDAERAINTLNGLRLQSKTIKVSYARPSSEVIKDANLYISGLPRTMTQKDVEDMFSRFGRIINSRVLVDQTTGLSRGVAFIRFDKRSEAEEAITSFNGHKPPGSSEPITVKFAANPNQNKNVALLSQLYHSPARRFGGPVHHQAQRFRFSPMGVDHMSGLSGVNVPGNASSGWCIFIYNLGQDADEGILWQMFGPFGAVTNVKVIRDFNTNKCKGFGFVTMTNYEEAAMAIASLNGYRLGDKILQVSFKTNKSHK

reduction of HuR expression (HuR [1]; MDA-MB-231, 10 nM): 38%
reduction of HuR expression (HuR [1]; MDA-MB-231, 10 μM): ~75%
binding response on HuR titration (intrinsic fluorescence) (HuR [2]): two distinct IC50 values
reduction of HuR expression (HuR [3]; MCF-7, 10 nM, 48 h): 42%
onset of activity (HuR degradation) (HuR [3]; MCF-7, 10 μM): 48 h
time-dependent response of HuR degradation (HuR [3]; MCF-7, 10 μM): showed a time-dependent response
reduction of HuR expression (HuR [3]; MCF-7, 10 μM, 48 h): ~75%
degrader activity at intermediate concentration (hook effect) (HuR [3]; around 0.1 μM, 48 h, MCF-7 and MDA-MB-231): loss of degrader activity
Structure (SMILES): O=C1CCC(N2C(=O)c3cccc(NCc4cn(-c5ccc6sc(C(=O)O)cc6c5)nn4)c3C2=O)C(=O)N1 (centres unmarked) [PRO-HuR3]
